Measured values published in ChEMBL document CHEMBL4418299, “Compounds useful as csf1 modulators” (2016).

Assays:
[1] = target: Macrophage colony-stimulating factor 1 receptor (Homo sapiens, UniProt P07333); assay: Displacement of kinase tracer 236 from recombinant human His-tagged CSF1R cytoplasmic domain (538 to 910 residues) expressed in baculovirus-infected insect cells measured after 5 hrs by TR-FRET based LanthaScreen assay
[2] = target: Vascular endothelial growth factor receptor 2 (Homo sapiens, UniProt P35968); assay: Displacement of kinase tracer 236 from recombinant human His-tagged KDR cytoplasmic domain (789 to 1356 residues) expressed in baculovirus-infected insect cells measured after 5 hrs by TR-FRET based LanthaScreen assay
Chain of Vascular endothelial growth factor receptor 2 (P35968 whole entry, the tested form may be a part): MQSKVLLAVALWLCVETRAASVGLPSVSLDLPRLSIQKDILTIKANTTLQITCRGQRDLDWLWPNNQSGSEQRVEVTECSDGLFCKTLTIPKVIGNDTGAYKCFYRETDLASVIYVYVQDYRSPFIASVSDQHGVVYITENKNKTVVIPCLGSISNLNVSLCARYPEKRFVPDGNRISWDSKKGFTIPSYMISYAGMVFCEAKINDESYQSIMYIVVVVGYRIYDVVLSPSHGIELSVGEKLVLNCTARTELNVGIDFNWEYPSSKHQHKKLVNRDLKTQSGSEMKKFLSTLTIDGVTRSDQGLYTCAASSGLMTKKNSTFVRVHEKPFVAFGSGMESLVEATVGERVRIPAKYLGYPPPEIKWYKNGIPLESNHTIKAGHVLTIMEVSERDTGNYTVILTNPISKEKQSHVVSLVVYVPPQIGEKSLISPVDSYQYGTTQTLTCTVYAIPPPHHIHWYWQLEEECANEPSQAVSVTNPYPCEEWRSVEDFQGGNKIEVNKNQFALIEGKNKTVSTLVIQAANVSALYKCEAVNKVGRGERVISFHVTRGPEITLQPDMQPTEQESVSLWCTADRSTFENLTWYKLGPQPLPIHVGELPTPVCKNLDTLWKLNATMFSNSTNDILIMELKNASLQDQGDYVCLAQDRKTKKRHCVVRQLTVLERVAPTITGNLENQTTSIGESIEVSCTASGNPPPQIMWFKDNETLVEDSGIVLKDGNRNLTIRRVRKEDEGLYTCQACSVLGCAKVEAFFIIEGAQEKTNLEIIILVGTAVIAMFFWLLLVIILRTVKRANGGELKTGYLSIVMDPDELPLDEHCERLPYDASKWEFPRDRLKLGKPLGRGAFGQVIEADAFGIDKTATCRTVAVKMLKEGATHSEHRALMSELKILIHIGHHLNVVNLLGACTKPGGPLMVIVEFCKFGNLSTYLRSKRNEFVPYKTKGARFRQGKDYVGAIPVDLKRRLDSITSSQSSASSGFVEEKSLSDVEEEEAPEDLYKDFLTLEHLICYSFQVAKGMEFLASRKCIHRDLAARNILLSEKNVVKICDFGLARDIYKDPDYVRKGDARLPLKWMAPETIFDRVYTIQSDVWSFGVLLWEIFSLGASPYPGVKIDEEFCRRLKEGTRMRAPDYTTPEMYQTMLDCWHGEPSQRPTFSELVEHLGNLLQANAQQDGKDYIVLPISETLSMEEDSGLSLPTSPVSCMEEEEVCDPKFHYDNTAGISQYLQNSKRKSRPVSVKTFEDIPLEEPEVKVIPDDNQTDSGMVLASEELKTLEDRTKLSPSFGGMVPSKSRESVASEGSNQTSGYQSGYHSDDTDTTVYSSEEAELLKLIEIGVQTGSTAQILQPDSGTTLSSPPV

Chain of Macrophage colony-stimulating factor 1 receptor (P07333 whole entry, the tested form may be a part): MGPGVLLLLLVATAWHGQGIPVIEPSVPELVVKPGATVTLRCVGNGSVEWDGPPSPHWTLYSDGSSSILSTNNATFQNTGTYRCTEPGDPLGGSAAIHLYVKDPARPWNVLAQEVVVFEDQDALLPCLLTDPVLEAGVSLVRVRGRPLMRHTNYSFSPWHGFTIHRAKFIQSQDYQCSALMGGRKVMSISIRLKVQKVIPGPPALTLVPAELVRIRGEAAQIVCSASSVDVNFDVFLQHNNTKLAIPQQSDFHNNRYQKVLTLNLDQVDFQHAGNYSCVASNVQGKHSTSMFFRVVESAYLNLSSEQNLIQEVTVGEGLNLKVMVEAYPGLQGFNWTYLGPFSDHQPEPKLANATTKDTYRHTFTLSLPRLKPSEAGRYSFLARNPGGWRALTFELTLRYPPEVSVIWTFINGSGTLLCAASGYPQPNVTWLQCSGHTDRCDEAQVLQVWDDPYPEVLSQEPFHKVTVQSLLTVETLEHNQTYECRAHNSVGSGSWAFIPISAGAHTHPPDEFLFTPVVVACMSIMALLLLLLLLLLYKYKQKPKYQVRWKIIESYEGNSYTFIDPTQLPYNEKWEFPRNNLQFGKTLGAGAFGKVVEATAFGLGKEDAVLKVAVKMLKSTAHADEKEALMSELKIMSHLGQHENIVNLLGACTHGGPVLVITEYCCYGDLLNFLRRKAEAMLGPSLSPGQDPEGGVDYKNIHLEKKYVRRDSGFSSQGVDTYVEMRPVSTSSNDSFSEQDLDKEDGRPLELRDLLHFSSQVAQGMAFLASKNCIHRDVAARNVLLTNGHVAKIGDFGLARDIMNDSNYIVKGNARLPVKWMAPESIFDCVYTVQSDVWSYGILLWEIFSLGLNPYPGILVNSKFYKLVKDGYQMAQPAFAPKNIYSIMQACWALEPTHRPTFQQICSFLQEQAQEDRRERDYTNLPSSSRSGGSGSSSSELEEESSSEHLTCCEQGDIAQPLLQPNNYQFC

SMILES	IC50 [1] [nM]	IC50 [2] [nM]
Nc1ncnc2c3c(n(-c4ccc(CC(=O)Nc5cc(C(F)(F)F)ccc5F)cc4)c12)COC3	10 to 200	> 200
Nc1ncnc2c3c(n(-c4ccc(NC(=O)Cc5ccc(F)cc5Br)cc4)c12)CCC3	< 10	> 200
Nc1ncnc2c3c(n(-c4ccc(NC(=O)Cc5ccc(Cl)c(C(F)(F)F)c5)cc4)c12)COC3	< 10	> 200
Nc1ncnc2c3c(n(-c4ccc(NC(=O)Cc5cc(C(F)(F)F)ccn5)cc4)c12)CCC3	10 to 200	> 200
Cc1ccc(F)c(NC(=O)Cc2ccc(-n3c4c(c5ncnc(N)c53)COC4)cc2)c1	10 to 200	> 200
COc1cccc(CC(=O)Nc2ccc(-n3c4c(c5ncnc(N)c53)CCC4)cc2)c1	< 10	> 200
Nc1ncnc2c3c(n(-c4ccc(NC(=O)Cc5cccc(Cl)c5)cc4)c12)CCC3	< 10	> 200
COc1ccc(CC(=O)Nc2ccc(-n3c4c(c5ncnc(N)c53)CCC4)cc2)cc1Br	< 10	< 10
COc1ccc(CC(=O)Nc2ccc(-n3c4c(c5ncnc(N)c53)CCC4)cc2F)c(F)c1	10 to 200	> 200
COc1ccc(CC(=O)Nc2ccc(-n3c4c(c5ncnc(N)c53)CCC4)cc2OC)c(F)c1	< 10	> 200
Nc1ncnc2c3c(n(-c4ccc(NC(=O)CC5CCNCC5)cc4)c12)CCC3	> 200	> 200
Nc1ncnc2c3c(n(-c4ccc(NC(=O)Cc5ccc6c(c5)CCC6)cc4)c12)CCC3	< 10	> 200
COc1ccc(NC(=O)Cc2ccc(-n3c4c(c5ncnc(N)c53)CCC4)cc2)cn1	10 to 200	> 200
Nc1ncnc2c3c(n(-c4ccc(NC(=O)CCc5c[nH]c6ccccc56)cc4)c12)CCC3	> 200	> 200
COc1ccc(CC(=O)Nc2ccc(-n3c4c(c5ncnc(N)c53)CCC4)cc2)cc1N(C)C	10 to 200	> 200
Nc1ncnc2c3c(n(-c4ccc(CC(=O)Nc5ccnc(C(F)(F)F)c5)cc4)c12)CCC3	10 to 200	10 to 200
COc1ccc(CC(=O)Nc2ccc(-n3c4c(c5ncnc(N)c53)CCC4)cc2)cc1C	< 10	> 200
Cc1ccc(F)c(NC(=O)Cc2ccc(-n3c4c(c5ncnc(N)c53)CCC4)cc2)c1	< 10	10 to 200
COc1ccc(CC(=O)Nc2ccc(-n3c4c(c5ncnc(N)c53)COC4)cc2)cc1C(F)(F)F	< 10	> 200

SMILES	IC50 [1] [nM]	IC50 [2] [nM]
Nc1ncnc2c3c(n(-c4ccc(CC(=O)Nc5ccc(C(F)(F)F)cn5)cc4)c12)COC3	10 to 200	> 200
COc1ccc(CC(=O)Nc2ccc(-n3c4c(c5ncnc(N)c53)CCC4)cc2)cc1C(F)(F)F	< 10	> 200
COc1cc(CC(=O)Nc2ccc(-n3c4c(c5ncnc(N)c53)COC4)cc2)ccc1C	10 to 200	> 200
Cn1ccc2cc(NC(=O)Cc3ccc(-n4c5c(c6ncnc(N)c64)CCC5)cc3)ccc21	< 10	> 200
Nc1ncnc2c3c(n(-c4ccc(NC(=O)Cc5ccc(OC(F)(F)F)cc5)cc4)c12)COC3	< 10	> 200
Nc1ncnc2c3c(n(-c4ccc(CC(=O)Nc5ccc(Cl)c(C(F)(F)F)c5)cc4)c12)COC3	< 10	> 200
COc1ccc(CC(=O)Nc2ccc(-n3c4c(c5ncnc(N)c53)CCC4)cc2)c(OC)c1	< 10	> 200
Nc1ncnc2c3c(n(-c4ccc(CC(=O)Nc5nc(C(F)(F)F)cs5)cc4)c12)CCC3	10 to 200	> 200
Nc1ncnc2c3c(n(-c4ccc(NC(=O)Cc5ccc(Cl)c(Cl)c5)cc4)c12)CCC3	< 10	> 200
Nc1ncnc2c3c(n(-c4ccc(NC(=O)Cc5cc(C(F)(F)F)ccc5F)cc4)c12)CCC3	< 10	> 200
Nc1ncnc2c3c(n(-c4ccc(NC(=O)Cc5cccc(Cl)c5F)cc4)c12)CCC3	< 10	> 200
Cn1ccc2cc(CC(=O)Nc3ccc(-n4c5c(c6ncnc(N)c64)COC5)cc3)ccc21	10 to 200	> 200
Cn1ccc2cc(CC(=O)Nc3ccc(-n4c5c(c6ncnc(N)c64)CCC5)cc3)ccc21	4	> 200
Nc1ncnc2c3c(n(-c4ccc(NC(=O)Cc5ccccc5)cc4)c12)CCC3	10 to 200	> 200
CC(C)(C)c1cc(NC(=O)Cc2ccc(-n3c4c(c5ncnc(N)c53)CCC4)cc2)n(-c2ccccc2)n1	< 10	< 10
COc1cc(-n2c3c(c4ncnc(N)c42)CCC3)ccc1CC(=O)Nc1ccc(OC)c(C(F)(F)F)c1	< 10	> 200
COc1ccc(CC(=O)Nc2ccc(-n3c4c(c5ncnc(N)c53)CCC4)cc2)nc1	10 to 200	> 200
Nc1ncnc2c3c(n(-c4ccc(NC(=O)Cc5cccc(OC(F)(F)F)c5)cc4)c12)CCC3	< 10	> 200
